Literature values, collected in patent US11622956B1, “Compound and method for treating diseases and disorders” (priority 2019, dated 2023).

Columns and labels:
joint pain = settings: dogs
static ataxia = settings: dogs, IV
[1] = oral
ataxia = settings: high levels of hemp-derived CBD

## COc1cccc(C2(O)CCCCC2CN(C)C)c1 (centres unmarked) [tramadol, Tramadol]
Joint pain
  peak vertical force or vertical impulse versus placebo: no improvement

## CCCCCc1cc(O)c2c(c1)OC(C)(C)[C@@H]1CCC(C)=C[C@@H]21 [THC, tetrahydrocannabinol]
Static ataxia
  dose producing static ataxia: > 0.5 mg/kg

## C=C(C)[C@@H]1CCC(C)=C[C@H]1c1c(O)cc(CCCCC)cc1O [CBD, Cannabidiol]
[1]
  fraction of orally administered CBD ultimately absorbed, at best: 15-20%
  fraction of orally administered CBD ultimately absorbed, on average: 5-10%
ataxia
  dogs with ataxia: 2 of the 10
